Measurements from PMC6017115, “Inhibitory Effect of Sauchinone on UDP-Glucuronosyltransferase (UGT) 2B7 Activity” (Molecules : A Journal of Synthetic Chemistry and Natural …, 2018).
pIC50, pKi: −log10 of the molar value.

Key:
Assay type in all cases: in vitro ADME
UGT1A3 = target: T1, UGT1A3 (Homo sapiens, UniProt P35503); experiment: Inhibition of UGT1A3 (chenodeoxy cholic acid glucuronidation) in human liver microsomes; details: substrate 15 μM chenodeoxy cholic acid, mean (minimum–maximum)
T1 construct: The reaction mixture containing 0.25 mg/mL protein of HLM; tissue Corning Life Sciences 452156; host or cells: pooled human liver microsomes, 50 donors
T1 sequence (P35503 29-534): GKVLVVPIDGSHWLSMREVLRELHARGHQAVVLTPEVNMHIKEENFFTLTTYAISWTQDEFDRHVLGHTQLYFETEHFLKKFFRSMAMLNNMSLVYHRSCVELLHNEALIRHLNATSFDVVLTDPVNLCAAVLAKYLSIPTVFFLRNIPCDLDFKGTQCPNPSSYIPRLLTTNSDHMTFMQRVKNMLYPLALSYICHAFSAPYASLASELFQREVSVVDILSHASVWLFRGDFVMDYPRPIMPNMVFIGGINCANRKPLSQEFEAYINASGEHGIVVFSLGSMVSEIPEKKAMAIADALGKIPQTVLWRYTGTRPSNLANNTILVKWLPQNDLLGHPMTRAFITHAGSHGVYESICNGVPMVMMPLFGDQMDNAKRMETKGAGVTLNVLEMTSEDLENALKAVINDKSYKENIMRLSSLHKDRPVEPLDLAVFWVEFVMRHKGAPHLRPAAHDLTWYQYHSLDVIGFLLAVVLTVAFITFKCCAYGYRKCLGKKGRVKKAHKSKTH
Protocol: (§1) Their IC50 values were compared to that of sauchinone. […] UGT-mediated activities in the presence of sauchinone as an inhibitor were expressed as percentages of corresponding control values (in absence of sauchinone). From percentages of control activity versus inhibitor concentrations, a sigmoid shaped curve was fitted to the data and IC50 as an enzyme inhibition parameter was calculated by fitting the Hill equation to the data using GraphPad Prism 5 (GraphPad Software Inc., San Diego, CA, USA).

UGT1A6 [1] = target: T2, UGT1A6 (Homo sapiens, UniProt P19224); experiment: Inhibition of UGT1A6 (serotonin glucuronidation) in human liver microsomes
T2 construct: tissue Corning Life Sciences 452156; host or cells: pooled human liver microsomes
T2 sequence (P19224 27-532): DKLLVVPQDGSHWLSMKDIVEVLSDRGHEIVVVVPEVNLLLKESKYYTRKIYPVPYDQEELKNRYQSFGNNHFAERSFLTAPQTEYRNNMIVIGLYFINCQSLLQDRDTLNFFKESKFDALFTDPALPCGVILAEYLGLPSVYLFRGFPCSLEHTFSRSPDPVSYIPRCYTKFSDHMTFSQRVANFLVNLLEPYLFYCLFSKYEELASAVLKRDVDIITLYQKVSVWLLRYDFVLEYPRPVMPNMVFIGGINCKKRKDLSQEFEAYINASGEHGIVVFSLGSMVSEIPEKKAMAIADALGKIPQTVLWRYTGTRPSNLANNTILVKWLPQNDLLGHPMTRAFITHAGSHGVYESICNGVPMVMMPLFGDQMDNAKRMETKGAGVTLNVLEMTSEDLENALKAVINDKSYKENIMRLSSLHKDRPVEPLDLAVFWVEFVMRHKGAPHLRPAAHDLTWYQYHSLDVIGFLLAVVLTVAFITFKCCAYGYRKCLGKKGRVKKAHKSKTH
Protocol: as §1

UGT1A6 [2] = target: T2, UGT1A6; experiment: Enzyme kinetic assay (Ki, Dixon plot) of UGT1A6-mediated serotonin glucuronidation; details: for inhibition mode on UGT1A6: Dixon plot, visual inspection
Protocol: Inhibitory effects of sauchinone on UGT1A1, 1A3, 1A4, 1A6, 1A9, and 2B7 activities were evaluated using HLMs. […] Spiked volume of UGT cocktail set was 1% (v/v) of total volume of mixture. […] The reaction was initiated by adding 5 mM UDPGA to a final volume of 150 μL and incubated at 37 °C for 15 or 60 min in a thermomixer at 500 rpm. Each reaction was stopped by adding 150 μL of ice-cold methanol containing 50 ng/mL IS. These mixtures were then centrifuged (12,000 rpm for 10 min at 4 °C) and 5 μL of the supernatant was injected into a UPLC-MS/MS system. […] Their IC50 values were compared to that of sauchinone. All inhibitors were dissolved in methanol (except for hecogenin, which was dissolved in dimethyl sulfoxide) and serially diluted to the required concentrations using the same solutions. The final concentration of organic solvent of inhibitors was 1% (v/v). All studies were performed in triplicate and mean values were used in the analysis. The half maximal inhibition constant (IC50) of sauchinone on UGT isoforms was estimated using GraphPad program.
Based on IC50 values, Ki values of sauchinone for UGT1A6 and 2B7 were determined. Concentrations of 0–200 μM of sauchinone were used. Other procedures were similar to those mentioned above in the study of reversible inhibitory effects of sauchinone. Inhibitory characteristics of sauchinone were initially estimated by nonlinear least squares regression analysis and Ki values were determined by Dixon plots.

Ugt2b7 = experiment: Inhibition of Ugt2b7 (zidovudine) in mice liver microsomes; details: mouse, pH 7.6, probe zidovudine (100 μM, in UGT substrate cocktail)
Protocol: Their IC50 values were compared to that of sauchinone. […] Mice were sacrificed and then livers were removed and rinsed with saline. After weighing the livers, they were homogenized with a four-fold volume of ice-cold homogenizing buffer (0.154 M KCl, 50 mM Tris-base, 1 mM EDTA, pH 7.4). After centrifugation for 35 min at 9000× g and 4 °C, the supernatants were centrifuged for 95 min at 100,000× g and at 4 °C. The supernatants were discarded and the pellets were homogenized again with ice-cold homogenizing buffer. These aliquots were stored at −80 °C. The subsequent process to evaluate the inhibitory effects of sauchinone on UGT activities in MLM was the same as those using HLM. UGT-mediated activities in the presence of sauchinone as an inhibitor were expressed as percentages of corresponding control values (in absence of sauchinone). From percentages of control activity versus inhibitor concentrations, a sigmoid shaped curve was fitted to the data and IC50 as an enzyme inhibition parameter was calculated by fitting the Hill equation to the data using GraphPad Prism 5 (GraphPad Software Inc., San Diego, CA, USA).

pIC50 (UGT1A3): 4.36
pIC50 (UGT1A6 [1]): 6.12
pKi (UGT1A6 [2]): 5.97
inhibition mode on UGT1A6 (UGT1A6 [2]): noncompetitively inhibited
inhibition mode on UGT1A6 (UGT1A6 [2]; listed as sauchinone): noncompetitive inhibition mode
Vmax for UGT1A6-mediated serotonin glucuronidation with inhibitor (UGT1A6 [2]; sauchinone as inhibitor at 50 μM (decrease from 174 at 0 μM)): 6.36 μM/min/mg protein
pIC50 (Ugt2b7): 4.64
Compound: C[C@@H]1[C@H]2c3cc4c(cc3O[C@@]35OCOC3=CC(=O)[C@H](C[C@H]1C)[C@@H]25)OCO4 [Sauchinone]
